Results as given in US20240024466A1, “LIPIDOID COMPOSITIONS AND METHODS OF USE THEREOF” (Trustees of Tufts College, priority 2020, published 2024).

Legend:
[1] = system: STING pathway; test: In vivo ifnb1 and cxcl10 gene expression in tumors by RT PCR; parameters: species or system C57BL/6 mice; details: intratumoral, one day after DOX injection, 6 h post second injection
[2] = system: B16F10 tumor; test: Treatment of B16F10 tumor by in situ vaccination; assay type: in vivo, C57BL/6 mice; details: DOX day 0, second and third injection day 1 and 5, intratumoral
[3] = system: B16F10 tumors; test: Immunocellular composition of the tumor microenvironment (flow cytometry); details: 48 h after the second injection
Description: To further evaluate the changes of the cellular composition after the treatment, the tumors were collected at 48 h after the second injection. The tumors were dissociated to single cells, stained with antibodies, and analyzed by the flowcytometry (FIG. 11).
After 48 h post the second injection, the tumors were collected and suspended to single cell solutions by 40 μm strainer (Thermo-Fisher). The cells were collected, washed with PBS, and stained with fluorescent antibodies of CD4 (APC-Cy7), CD8a (PE-Cy5), CD45 (PE), CD3e (FITC), F4/80 (APC), and CD11c (APC) in Flow Cytometry Staining Buffer (eBioscience). Fluorescent signal was measured using LSR-II flow cytometer (BD Biosciences). The data was analyzed by FlowJo-v10.

[4] = system: STING pathway; test: In vitro ifnb1 and cxcl10 gene expression by RT PCR; assay type: cell-based; details: RAW264.7, 150 nM cGAMP, 4 h
[5] = system: STING pathway; test: as above; assay type: cell-based; details: DC2.4, 150 nM cGAMP, 4 h
[6] = system: dengue virus; test: nAb response to a protein-based dengue virus vaccine with TLR ligands; details: in vivo
Excerpt: The two TLR ligands individually will be produced and in combination into mRNA-LNPs and test if they enhance nAb response and reduce antibody-dependent enhancement. The mechanisms underlying the enhanced nAb response will be investigated for further adjuvant optimization.

[7] = system: draining lymph nodes; test: In vivo mRNA delivery, luciferase mRNA expression in draining lymph nodes; details: adjuvant incorporated into the LNP
[8] = system: C57BL/6 mice; test: OVA prime-boost immunization with LNP formulations, antibody response by ELISA; details: rough library screening, OVA formulated with LNPs, injections at day 1 and day 14, FIG. 7B
[9] = system: BALB/c mice; details: s.c., IVIS 5 h after second injection

COc1cccc2c1C(=O)c1c(O)c3c(c(O)c1C2=O)C[C@@](O)(C(=O)CO)C[C@@H]3O[C@H]1C[C@H](N)[C@H](O)[C@H](C)O1 [DOX, doxorubicin]
expression of ifnb1 and cxcl10 genes in B16F10 tumors [1]: did not changed significantly
tumor growth inhibition (tumor volumes) [2]: slight inhibition
population of CD4+ and CD8+ T cells at tumor sites [3]: did not make significant changes

Nc1nc2c(ncn2[C@@H]2O[C@@H]3COP(=O)(O)O[C@H]4[C@@H](O)[C@H](n5cnc6c(N)ncnc65)O[C@@H]4COP(=O)(O)O[C@@H]2[C@@H]3O)c(=O)[nH]1 [cGAMP, 2′5′-3′5′ cyclic guanosine monophosphate-adenosine monophosphate]
expression of ifnb1 and cxcl10 genes in B16F10 tumors [1]: modest increase
population of CD4+ and CD8+ T cells at tumor sites [3]: increasement
expression of ifnb1 gene compared with PBS-treated cells [4]: modest increase
expression of ifnb1 gene compared with PBS-treated cells [5]: modest increase

Pam3CSK4
nAb responses to a protein-based dengue virus vaccine [6]: dramatically augment
expression of luciferase mRNA in draining lymph nodes [7]: increased

lipopolysaccharide [LPS]
IgG1 antibody response [8]: extremely positive

poly I:C
nAb responses to a protein-based dengue virus vaccine [6]: dramatically augment

B1: ovalbumin (protein, UniProt P01012 2-386, looked up)
Ovalbumin: GSIGAASMEFCFDVFKELKVHHANENIFYCPIAIMSALAMVYLGAKDSTRTQINKVVRFDKLPGFGDSIEAQCGTSVNVHSSLRDILNQITKPNDVYSFSLASRLYAEERYPILPEYLQCVKELYRGGLEPINFQTAADQARELINSWVESQTNGIIRNVLQPSSVDSQTAMVLVNAIVFKGLWEKAFKDEDTQAMPFRVTEQESKPVQMMYQIGLFRVASMASEKMKILELPFASGTMSMLVLLPDEVSGLEQLESIINFEKLTEWTSSNVMEERKIKVYLPRMKMEEKYNLTSVLMAMGITDVFSSSANLSGISSAESLKISQAVHAAHAEINEAGREVVGSAEAGVDAASVSEEFRADHPFLFCIKHIATNAVLFFGRCVSP
IgG1 antibody response [8]: very low antibody response

B2: OVA^Alexa-647: Alexa Fluor 647-conjugated OVA, model antigen (protein, UniProt P01012 2-386, looked up)
Ovalbumin: GSIGAASMEFCFDVFKELKVHHANENIFYCPIAIMSALAMVYLGAKDSTRTQINKVVRFDKLPGFGDSIEAQCGTSVNVHSSLRDILNQITKPNDVYSFSLASRLYAEERYPILPEYLQCVKELYRGGLEPINFQTAADQARELINSWVESQTNGIIRNVLQPSSVDSQTAMVLVNAIVFKGLWEKAFKDEDTQAMPFRVTEQESKPVQMMYQIGLFRVASMASEKMKILELPFASGTMSMLVLLPDEVSGLEQLESIINFEKLTEWTSSNVMEERKIKVYLPRMKMEEKYNLTSVLMAMGITDVFSSSANLSGISSAESLKISQAVHAAHAEINEAGREVVGSAEAGVDAASVSEEFRADHPFLFCIKHIATNAVLFFGRCVSP
modifications: Alexa Fluor 647 label
distribution of OVA^Alexa-647 fluorescence signal [9]: mainly distributed in bladder
